Laboratory results reported in PMC11124822, “Discovery and Anticancer Screening of Novel Oxindole-Based Derivative Bearing Pyridyl Group as Potent and Selective Dual FLT3/CDK2 Kinase Inhibitor” (Pharmaceuticals, 2024).

Assays:
Assay in all cases: NCI-60 antiproliferative screen (SRB)
CCRF-CEM = assay type: cell-based, human; settings: Homo sapiens; 10 µM single dose, 48 h; CCRF-CEM (Leukemia); read-out: Growth inhibition (%)
HL-60(TB) = assay type: cell-based, human; settings: Homo sapiens; 10 µM single dose, 48 h; HL-60(TB) (Leukemia); read-out: Growth inhibition (%)
K-562 = assay type: cell-based, human; settings: Homo sapiens, K562; 10 µM single dose, 48 h; K-562 (Leukemia); read-out: Growth inhibition (%)
MOLT-4 = assay type: cell-based; settings: Homo sapiens; 10 µM single dose, 48 h; MOLT-4 (Leukemia); read-out: Growth inhibition (%)
RPMI-8226 = assay type: cell-based, human; settings: Homo sapiens; 10 µM single dose, 48 h; RPMI-8226 (Leukemia); read-out: Growth inhibition (%)
EKVX = assay type: cell-based, human; settings: Homo sapiens; 10 µM single dose, 48 h; EKVX (NSCLC); read-out: Growth inhibition (%)
NCI-H226 = assay type: cell-based, human; settings: Homo sapiens; 10 µM single dose, 48 h; NCI-H226 (NSCLC); read-out: Growth inhibition (%)
COLO 205 = assay type: cell-based, human; settings: Homo sapiens; 10 µM single dose, 48 h; COLO 205 (Colon); read-out: Growth inhibition (%)
HCC-2998 = assay type: cell-based, human; settings: Homo sapiens; 10 µM single dose, 48 h; HCC-2998 (Colon); read-out: Growth inhibition (%)
HCT-116 = assay type: cell-based, human; settings: Homo sapiens; 10 µM single dose, 48 h; HCT-116 (Colon); read-out: Growth inhibition (%)
KM12 = assay type: cell-based, human; settings: Homo sapiens; 10 µM single dose, 48 h; KM12 (Colon); read-out: Growth inhibition (%)
SF-295 = assay type: cell-based, human; settings: Homo sapiens; 10 µM single dose, 48 h; SF-295 (CNS); read-out: Growth inhibition (%)
U251 = assay type: cell-based, human; settings: Homo sapiens, U-251; 10 µM single dose, 48 h; U251 (CNS); read-out: Growth inhibition (%)
MALME-3M = assay type: cell-based, human; settings: Homo sapiens; 10 µM single dose, 48 h; MALME-3M (Melanoma); read-out: Growth inhibition (%)
SK-MEL-2 = assay type: cell-based, human; settings: Homo sapiens; 10 µM single dose, 48 h; SK-MEL-2 (Melanoma); read-out: Growth inhibition (%)
SK-MEL-28 = assay type: cell-based, human; settings: Homo sapiens; 10 µM single dose, 48 h; SK-MEL-28 (Melanoma); read-out: Growth inhibition (%)
IGROV1 = assay type: cell-based, human; settings: Homo sapiens, IGROV-1; 10 µM single dose, 48 h; IGROV1 (Ovarian); read-out: Growth inhibition (%)
OVCAR-5 = assay type: cell-based, human; settings: Homo sapiens; 10 µM single dose, 48 h; OVCAR-5 (Ovarian); read-out: Growth inhibition (%)
786-0 = assay type: cell-based, human; settings: Homo sapiens; 10 µM single dose, 48 h; 786-0 (Renal); read-out: Growth inhibition (%)
RXF 393 = assay type: cell-based, human; settings: Homo sapiens; 10 µM single dose, 48 h; RXF 393 (Renal); read-out: Growth inhibition (%)
SN12C = assay type: cell-based, human; settings: Homo sapiens; 10 µM single dose, 48 h; SN12C (Renal); read-out: Growth inhibition (%)
TK-10 = assay type: cell-based, human; settings: Homo sapiens; 10 µM single dose, 48 h; TK-10 (Renal); read-out: Growth inhibition (%)
UO-31 = assay type: cell-based, human; settings: Homo sapiens; 10 µM single dose, 48 h; UO-31 (Renal); read-out: Growth inhibition (%)
PC-3 = assay type: cell-based, human; settings: Homo sapiens; 10 µM single dose, 48 h; PC-3 (Prostate); read-out: Growth inhibition (%)
MCF7 = assay type: cell-based, human; settings: Homo sapiens; 10 µM single dose, 48 h; MCF7 (Breast); read-out: Growth inhibition (%)
MDA-MB-231 = assay type: cell-based, human; settings: Homo sapiens; 10 µM single dose, 48 h; MDA-MB-231 (Breast); read-out: Growth inhibition (%)
HS 578T = assay type: cell-based, human; settings: Homo sapiens; 10 µM single dose, 48 h; HS 578T (Breast); read-out: Growth inhibition (%)
T-47D = assay type: cell-based, human; settings: Homo sapiens, T47D; 10 µM single dose, 48 h; T-47D (Breast); read-out: Growth inhibition (%)
MDA-MB-468 = assay type: cell-based, human; settings: Homo sapiens; 10 µM single dose, 48 h; MDA-MB-468 (Breast); read-out: Growth inhibition (%)
SNB-75 = settings: Homo sapiens, SNB-75, 48 h, read-out: Growth inhibition (%)

Row | Compound | inhibition at 10 µM (CCRF-CEM) [%] | inhibition at 10 µM (HL-60(TB)) [%] | inhibition at 10 µM (K-562) [%] | inhibition at 10 µM (MOLT-4) [%] | inhibition at 10 µM (RPMI-8226) [%] | inhibition at 10 µM (EKVX) [%] | inhibition at 10 µM (NCI-H226) [%] | inhibition at 10 µM (COLO 205) [%] | inhibition at 10 µM (HCC-2998) [%] | inhibition at 10 µM (HCT-116) [%] | inhibition at 10 µM (KM12) [%] | inhibition at 10 µM (SF-295) [%] | inhibition at 10 µM (U251) [%] | inhibition at 10 µM (MALME-3M) [%] | inhibition at 10 µM (SK-MEL-28) [%] | inhibition at 10 µM (IGROV1) [%] | inhibition at 10 µM (OVCAR-5) [%] | inhibition at 10 µM (786-0) [%] | inhibition at 10 µM (SN12C) [%] | inhibition at 10 µM (TK-10) [%] | further results
1 | O=C1Nc2cc(Cl)ccc2C1=Cc1ccc(OCc2ccncc2)cc1 (mixture of isomers) [Compound 5p, (E/Z)-6-Chloro-3-[4-(pyridin-4-ylmethoxy)benzylidene]indolin-2-one] | 34.4 | 52.4 | 59.1 | 79 | 74.9 | 45.1 | 49.5 | 39.7 | 20.1 | 61.5 | 47.8 | 32.2 | 64.4 | 12.5 | -10.9 | 67.9 | -29.4 | 23.9 | 34.6 | -0.51 | inhibition at 10 µM (SK-MEL-2): 27.6%; inhibition at 10 µM (RXF 393): 67.4%; inhibition at 10 µM (UO-31): 49%; inhibition at 10 µM (PC-3): 45%; inhibition at 10 µM (MCF7): 71.6%; inhibition at 10 µM (MDA-MB-231): 32.7%; inhibition at 10 µM (HS 578T): 35%; inhibition at 10 µM (T-47D): 67.1%; inhibition at 10 µM (MDA-MB-468): 65.6%; inhibition at 10 µM (SNB-75): 14.9%
2 | O=C1Nc2ccc(F)cc2C1=Cc1ccc(OCc2ccccc2)cc1 (mixture of isomers) [Compound 5b, (E/Z)-3-[4-(Benzyloxy)benzylidene]-5-fluoroindolin-2-one] | -10.8 | 7.92 | 7.19 | -0.05 | 2.59 | 0.65 | 9.53 | 1.92 | -9.12 | 4.15 | 2.42 | 1.11 | 0.4 | 7.33 | 2.92 | 2.92 | -0.99 | 0.43 | 0.27 | 4.82 | inhibition at 10 µM (RXF 393): 0.31%; inhibition at 10 µM (UO-31): 2.55%; inhibition at 10 µM (PC-3): -2.77%; inhibition at 10 µM (MCF7): 7.57%; inhibition at 10 µM (MDA-MB-231): 2.43%; inhibition at 10 µM (HS 578T): -0.32%; inhibition at 10 µM (T-47D): 3.79%; inhibition at 10 µM (MDA-MB-468): 1.56%; inhibition at 10 µM (SNB-75): 5.15%
3 | O=C1Nc2cc(Cl)ccc2C1=Cc1ccc(OCc2ccccn2)cc1 (mixture of isomers) [Compound 5h, (E/Z)-6-Chloro-3-[4-(pyridin-2-ylmethoxy)benzylidene]indolin-2-one] | 53.7 | 5.33 | 31.4 | 61.5 | 32.4 | 49.4 | 48.6 | -3.47 | 16.7 | 47.8 | 21.6 | 14.3 | 61.6 | 18 | -8.02 | 26.2 | 15.6 | 18.7 | 24.9 | -0.24 | inhibition at 10 µM (SK-MEL-2): -10.3%; inhibition at 10 µM (RXF 393): 38.2%; inhibition at 10 µM (UO-31): 38%; inhibition at 10 µM (PC-3): 54.7%; inhibition at 10 µM (MCF7): 63.7%; inhibition at 10 µM (T-47D): 38%; inhibition at 10 µM (MDA-MB-468): 60.8%; inhibition at 10 µM (SNB-75): 63.3%
4 | O=C1Nc2ccc(Cl)cc2C1=Cc1ccc(OCc2ccccn2)cc1 (mixture of isomers) [Compound 5g, (E/Z)-5-Chloro-3-[4-(pyridin-2-ylmethoxy)benzylidene] indolin-2-one] | 16.8 | 15 | 49 | 53.1 | 26.1 | 34.3 | 98.7 | 10.9 | -4.51 | 71.5 | 21.2 | 15.5 | 76.3 | 61.5 | -0.48 | 45.4 | 11.8 | 74.3 | 55.5 | 9.89 | inhibition at 10 µM (SK-MEL-2): -11.4%; inhibition at 10 µM (UO-31): 40.5%; inhibition at 10 µM (PC-3): 37.9%; inhibition at 10 µM (MCF7): 71.1%; inhibition at 10 µM (MDA-MB-231): 78.3%; inhibition at 10 µM (HS 578T): 85.2%; inhibition at 10 µM (T-47D): 31%; inhibition at 10 µM (MDA-MB-468): 49.6%; inhibition at 10 µM (SNB-75): -12.6%
